Laboratory results as given in ChEMBL document CHEMBL1130901, “Halohydrin analogues of cryptophycin 1: synthesis and biological activity” (Bioorg Med Chem Lett, 1998).

Tests used:
[1] = Half life in PEM buffer at pH 7.4; type: ADME
[2] = Half life in phosphate buffer at pH 7.4; type: ADME
[3] = Tested in vitro for the concentration that reduces the amount of pelleted protein by 50% in microtubule assembly assay.; type: functional

Row | half-life [1] [min] | half-life [2] [min] | Compound | ED50 [3] [mM]
1 | < 1 | 2.5 | COc1ccc(C[C@H]2NC(=O)/C=C/C[C@@H]([C@H](C)[C@@H](O)[C@@H](I)c3ccccc3)OC(=O)[C@H](CC(C)C)OC(=O)[C@H](C)CNC2=O)cc1Cl | –
2 | 3.7 | 11 | COc1ccc(C[C@H]2NC(=O)/C=C/C[C@@H]([C@H](C)[C@@H](O)[C@@H](Br)c3ccccc3)OC(=O)[C@H](CC(C)C)OC(=O)[C@H](C)CNC2=O)cc1Cl | –

Row | Compound | half-life [1] [min] | half-life [2] [min] | ED50 [3] [mM]
3 | COc1ccc(C[C@H]2NC(=O)/C=C/C[C@@H]([C@H](C)[C@@H](O)[C@@H](Cl)c3ccccc3)OC(=O)[C@H](CC(C)C)OC(=O)[C@H](C)CNC2=O)cc1Cl | 75 | 660 | 7.5
